Data on 86 compounds can be found in a melting point compilation (Tetko et al.; mined from patent text by program, amines drawn as free bases though some values may be those of a salt).

Where only a bound is given, the exact number is not on record here.

As a reminder, the melting point is the temperature of the solid-liquid transition. As to `C#CCn1cc(C#N)c(CO)c1`, the melting point worked out at 95 °C. To `Oc1ccc(F)cc1-c1cc(-c2ccc(-c3ccccc3)cc2)cc(-c2ccc3ccccc3c2)n1` belongs 187 to 188 °C. To `O=C(O)C1c2cccnc2NN1C(=O)O` (stereo unspecified) belongs 270 to 285 °C. As for `Cc1ccc(NC(=O)c2c(C)cccc2N)cc1`, the melting point is 217 to 220 °C. In the case of `COC(=O)[C@H](CO)NC(=O)[C@H](Cc1ccccc1)NC(=O)OC(C)(C)C`, the melting point fell in the range of 90 to 93 °C. `CCOC(=O)C1(C(=O)OCC)CCC2(NCCc3cc(OC)c(OC)cc32)C(C2c3cc(OC)c(OC)cc3CCN2CC)C1` (stereo unspecified) returned a melting point of 146 to 147 °C. To `CC(=O)C1(COC(N)=O)CC2C=CC1C2` (stereo unspecified) belongs 118 to 119 °C; to `O=c1oc(-c2ccccc2)cc(O)c1C(SCc1ccccc1)c1ccccc1` (stereo unspecified), 189 to 191 °C; to `CCOC(=O)c1cc2cc[nH]c2cc1N`, greater than 250 °C. Regarding `CCOC(=O)c1ccccc1S(N)(=O)=O`, the melting point was 122 to 124 °C.

In turn, `CN1C(=S)N(c2ccc(C#N)c(C(F)(F)F)c2)C(=S)C1(C)C` gave a melting point of 211 to 212 °C. Compound `CNC1(c2ccccc2Cl)C(=O)N(S(=O)(=O)c2ccc(OC)cc2OC)c2c(F)cc(Cl)cc21` (stereo unspecified) showed a melting point of 183 to 185 °C.

On to `O=C1N(c2c(Cl)cccc2Cl)Cc2cnc(Nc3ccccc3)nc2N1c1ccccc1`, for which the melting point is 138 °C.

`CCOC(CC)c1ccc(Cl)c2nc3n(c12)CCCN3c1cnc(N(C)C)cc1C` (stereo unspecified) displayed a melting point of 179 to 180 °C. With `CCOC(=O)C(=CN(CC)c1ccc(C=O)s1)C(=O)OCC`, the melting point came to 45 °C.

`COc1ccc2c(c1)c1c3c(c(-c4ccccc4Cl)cc1n2CCC#N)C(=O)NC3=O`: the melting point is 287 to 288 °C. For the compound `CCCSc1cc2c(c3c1OC(C)(C)C3)C(c1cccc(C(=O)O)c1)=NC(C)(C)C2`, the melting point lay within 206 to 208 °C. Consider `OCC1OC(OCc2ccccc2)C(OCc2ccccc2)C(OCc2ccccc2)C1OCc1ccccc1` (stereo unspecified), for which the melting point fell in the range of 99 to 101 °C. Turning to `O=C(c1ccc(F)cc1)C1CCN(CCCn2c(=O)[nH]c3ccc(Cl)cc32)CC1`, the melting point is 157 °C. To `O=C(CN1CCNC1=O)N1CCC(C2c3ncc(Br)cc3CCc3cc(Cl)cc(Br)c32)CC1` (single isomer, unassigned; (+)) belongs 167 to 168 °C; to `CN(C)CC1CCc2cc(OCc3ccc([N+](=O)[O-])cc3)ccc2C1` (stereo unspecified), 83 to 89 °C; to `CCOC(=O)c1cnc(N2CCN(Cc3ccccc3)CC2)nc1C(=O)OCC`, 66 °C. On to `COCc1cc2c(NC(=S)N3Cc4ccccc4CC3CCO)cccc2cn1` (racemic), for which the melting point was 152 °C. Compound `COc1cc(C2C3=C(COC3=O)Nc3ccc4cc(C)[nH]c4c32)cc(OC)c1OC` (stereo unspecified) yielded a melting point of 280 to 281 °C. As for `CN1CCN(C2CC3C4CCC5CC(O)C(N6CCC7(CC6)OCCO7)CC5(C)C4CCC3(C)C2O)CC1` (stereo unspecified), the melting point was in the range of 185 to 187 °C.

On to `CCc1ccnc2cc(OC)c(O)cc12`, for which the melting point fell in the range of 200 to 202 °C. Compound `CNC(=O)C(=NOC)c1ccccc1COc1ncc(C(=O)OC(C)C)cc1C` registered a melting point of 101 to 102 °C. Next, `CNC(=O)ON=C1OCCSC1(C)C`: 67 to 68 °C; `CCCCC(=O)Nc1ccc(C(F)(F)F)c(-n2nc(CCCC)n(Cc3ccc(-c4ccccc4S(=O)(=O)NC(=O)OC(C)(C)C)cc3F)c2=O)c1`: 179 to 182 °C. Compound `CC(C)c1nc(CN2C(=O)C3(COc4cc5c(cc43)OCO5)c3c(Cl)cccc32)cs1` (stereo unspecified) showed a melting point of 147 to 148 °C. For `CS(=O)(=O)N(Cc1cccnc1)c1ccc(O)cc1`, the melting point lay within 208 to 210 °C. To `CC(C)Oc1ccc(OCc2ccccc2)cc1-c1nc2cc(CNCC(=O)O)cnc2[nH]1` belongs 182 to 184 °C; to `CCCCCCCCOc1ccc(-c2ccc(OCC(C)OC(=O)C(C)CC)cc2)cc1` (stereo unspecified), 56 °C. To `O=C(Nc1ccc(F)cc1)[C@H]1CCCN(C(=O)c2ccc(F)cc2)C1` belongs 163 to 164 °C; to `O=C(Cn1c(=O)n(S(=O)(=O)c2ccc(Cl)cc2)c(=O)c2ccc(Cl)cc21)Nc1ccccc1`, 217 to 218 °C. The compound `CC(C)P1(=O)NCc2ccccc21` (stereo unspecified) showed a melting point of 149 to 151 °C. Take `CC1(CCn2nc(-c3ccncc3)oc2=O)Cn2cc([N+](=O)[O-])nc2O1` (stereo unspecified): the melting point lay within 147 to 149 °C. Next, `Oc1ccc2c(c1)CCc1c-2oc2cc(O)ccc12`: 219 to 220 °C. `Fc1ccc(-c2cn([C@H]3CN4CCC3CC4)nn2)cc1F` displayed a melting point of 122 °C. As to `COc1ccc2c(c1)c(Cc1nc(-c3ccc(Cl)cc3)cs1)c(C)n2C(=O)c1ccc(Cl)cc1`, the melting point fell in the range of 186 to 188 °C. To `CCCCc1ccnc(C2(C(=S)NC)CCCS2)c1` (stereo unspecified) belongs 102 °C. In the case of `COc1nc(C)c(N2CCCn3c2nc2cccc(C(O)C(F)(F)F)c23)c(C)n1` (stereo unspecified), the melting point is 296 to 299 °C.

For the compound `COC(=O)C=Cc1c(C(=O)OC)c2c(n1C)C(=O)C=C(OC)C2=O`, the melting point fell in the range of 235 to 236 °C.

`Cc1c(C(=O)Nc2ccc(N3CCN(CCO)CC3)c(C#N)c2)cnn1-c1ccc(F)cc1` registered a melting point of 179 to 180 °C. In turn, `CN1CCN(Cc2nnc(-c3ccccc3)cc2-c2cccc([N+](=O)[O-])c2)CC1` had a melting point of 157 to 159 °C. As for `COc1ccc(Cc2ccc3nc(N)nc(N)c3c2)cc1OC`, the melting point was 215 to 217 °C.

`COc1nc(OC)c(C(C)C)c(C(=O)c2cc(Cl)cc(Cl)c2)n1` came in with a melting point of 120 to 121 °C.

Turning to `CC(C)(C)OC(=O)N1CC2CN(C(N)=S)CC2C1` (stereo unspecified), the melting point fell in the range of 188 to 190 °C. Compound `CON(C)C(=O)[C@@H](CO)NC(=O)OC(C)(C)C` came in with a melting point of 115 to 116 °C. Next, `Cc1cc(C)cc(S(=O)(=O)c2ccc([N+](=O)[O-])cc2)c1`: 179 to 180 °C; `CCOCCn1cccc1-c1nc(-c2ccc(OC)cc2)c(-c2ccc(OC)cc2)s1`: 68 to 71 °C; `c1ccc(COc2ccc(C(c3ccc(OCc4ccccc4)cc3)n3cncn3)cc2)cc1`: 134 to 137 °C. `CCCCN(Cc1ccc(-c2ccccc2-c2nnnn2C(c2ccccc2)(c2ccccc2)c2ccccc2)cc1)c1ncncc1C(=O)OCC` returned a melting point of 142 to 144 °C.

In turn, `CCOC(=O)C=Cc1ccc(NC(=O)Nc2cccnc2)cc1` registered a melting point of 188 to 189 °C. In the case of `CC(=C(c1ccccc1)c1ccccc1)P(C1CCCCC1)C1CCCCC1`, the melting point fell in the range of 128 to 130 °C. As to `CCOC(=O)N1CCc2nc3c(Cl)cccc3c(C)c2CC1`, the melting point was 169 °C. To `NS(=O)(=O)c1ccc(OCCn2ccnc2)cc1` belongs 148 °C. The compound `COC(=O)N1CCCc2onc(OC)c2C1` yielded a melting point of 68 to 70 °C.

In turn, `CN1CC(=O)Nc2ccncc2C1=O` gave a melting point of 267 to 268 °C.

With `CCOC(=O)C1=C(C)NC(COCCN)=C(C(=O)OC)C1c1cccc(Cl)c1Cl` (stereo unspecified), the melting point was 131 to 132 °C. The compound `O=C(O)CCCC#CCN1C(=O)c2ccccc2C1=O` had a melting point of 120 to 122 °C.

For the compound `O=S1(=O)c2sccc2C(O)CN1Cc1ccncc1` (stereo unspecified), the melting point fell in the range of 183 to 185 °C. Regarding `O=c1[nH]c(-c2ccc(C(F)(F)F)cc2C(F)(F)F)nn1-c1cc(Cl)ccc1O`, the melting point was 270 to 275 °C.

Consider `Cc1ccccc1N1CCN(C(=O)c2ccc3n2Cc2ccccc2N(C(=O)c2ccc(C4CCCCC4)cc2)C3)CC1`, for which the melting point lay within 141 to 143 °C. For `OCCn1ccccc1=S`, the melting point lay within 95 to 97 °C. For the compound `C=CCc1c(OCC(O)COc2ccc3c(=O)cc(C(=O)O)oc3c2CC=C)ccc(C(C)=O)c1O` (stereo unspecified), the melting point turned out to be 105 °C. On to `O=[N+]([O-])c1cccc2c1ncn2-c1cccc(Br)c1`, for which the melting point lay in the range of 180 to 182 °C. The compound `CCON=Cc1ccccc1OCc1ccccc1C(=COC)C(=O)OC` yielded a melting point of 86 to 88 °C. In the case of `CCOC(=O)c1cnc2c(OCC)csc2c1O`, the melting point is 223 to 224 °C. As for `Cc1ccc(S(=O)(=O)N2CC2CBr)cc1` (stereo unspecified), the melting point fell in the range of 75 to 78 °C. Compound `O=C(Nc1nccs1)c1ccc(CN2C(=O)C3(COc4cc5c(cc43)CCO5)c3ccccc32)cc1` (stereo unspecified) displayed a melting point greater than 250 °C.

Turning to `O=C1CSc2ccc(S(=O)(=O)Cl)cc2N1`, the melting point lay in the range of 165 to 167 °C. As to `CC(C)(C)Sc1c(CC(C)(C)C(=O)O)n(Cc2ccc(Cl)cc2)c2ccc(OCc3ccncc3)cc12`, the melting point lay in the range of 238 to 240 °C.

With `O=c1[nH]cc(-c2ccncc2)cc1[N+](=O)[O-]`, the melting point is 258 to 260 °C. `CCCN1CC(c2cccc(F)c2)=C(c2ccc(S(N)(=O)=O)cc2)C1=O` gave a melting point of 188 to 190 °C.

Compound `COc1ccc2c(c1)CCC1C2CCC2(C)C1CCC2N(C=O)CCN(C)C` (stereo unspecified) displayed a melting point of 98 to 100 °C. In the case of `CC(C)C1C(=O)OC(=O)N1c1ccc(Cl)cc1` (stereo unspecified), the melting point is 137 to 138 °C. To `O=[N+]([O-])c1ccc(CCN2CCC(N3CCc4ccccc43)CC2)cc1` belongs 95 to 97 °C; to `CC(=O)Nc1cccc(C#CC=Cc2cccc(NC(C)=O)c2)c1`, 276 to 278 °C; to `CN1CCN(c2ccc(N/C=C3\C(=O)NC(=O)c4ccc(I)cc43)cc2)CC1`, 220 to 221 °C. On to `COC(=O)C1=C(Cl)/C(=N/OS(C)(=O)=O)CC(c2ccc(Cl)c(OC)c2F)N1` (stereo unspecified), for which the melting point fell in the range of 64 to 66 °C. Take `N#CC1CCc2ccc([N+](=O)[O-])cc2C(=O)C1` (stereo unspecified): the melting point stood at 107 °C. Regarding `CC1CCN(CCCC(=O)c2ccc3c(c2)C(=O)c2cc(C(=O)CCCN4CCC(C)CC4)ccc2-3)CC1`, the melting point lay in the range of 178 to 180 °C. The compound `COCn1c(C)nc2c3c(c(C(=O)N(C)C)cc21)CCC(c1ccccc1)O3` (stereo unspecified) registered a melting point of 213 to 215 °C.

In turn, `Fc1ccc(-c2nc(-c3ccc[nH]3)[nH]c2-c2ccc(F)cc2)cc1` had a melting point of 276 °C. As for `NC(=O)OCC(O)COc1cc(-c2cccc(Cl)c2)on1` (stereo unspecified), the melting point lay in the range of 149 to 150 °C.
